Measurements from patent US20200085839A1, “COMBINATION OF IMMUNOTHERAPEUTICS AND BISFLUOROALKYL-1,4-BENZODIAZEPINONE COMPOUNDS FOR TREATING LYMPHOMAS” (Ayala Pharmaceuticals Inc., priority 2018, published 2020).

Tested on: U266 cells (MM cell line)
Assay: Cell-bound BCMA by flow cytometry
Type: cell-based, human
Conditions: 24 h, FIG. 1
Experimental: FIG. 1. Levels of cell-bound BCMA en multiple myelma (MM) cells Incubated with γ-secretase inhibitors (GSIs). U266 cells (MM cell line) were incubated with 0.3 nM, 0.5 nM, 1 nM or 3 nM of GSI (Compound 1, Compound 22, LY3039478 or PF3084014) for 24 hours, and BCMA levels were measured by flow cytometry.
For detecting levels of soluble and cell-bound BCMA, U266 cells (MM cell line) were seeded at 1×10^5 cells/well in a total volume of 250 μl into a 96-well plate. The cells were cultured in RPMI medium supplemented with 10% FCS. GSIs (Compound 1, Compound 22, LY3039478 (Lilly), and PF3084014 (Pfizer)) were added to U266 cell cultures at a concentration of 0.3 nM, 0.5 nM, 1 nM and 3 nM for soluble BCMA and at a concentration of […]. Following 24 hours of incubation at 37° C., the cells were collected, and BCMA levels were evaluated in both the cells (cell-bound BCMA) and the cell media (soluble BCMA). Cells were stained with an anti-BCMA antibody (PE anti-human CD269 BCMA, Biolegend). Soluble BCMA levels were analyzed by ELISA (Human BCMA/TNFRSF17 DuoSet kit: R&D Systems).

SMILES | cell-bound BCMA levels
C[C@H](NC(=O)CCC(F)(F)F)C(=O)N[C@@H]1C(=O)N(CCO)c2ncccc2-c2ccccc21 [LY3039478, reference compound] | increased cell-bound BCMA levels
CCC[C@H](N[C@H]1CCc2cc(F)cc(F)c2C1)C(=O)Nc1cn(C(C)(C)CNCC(C)(C)C)cn1 [PF3084014, reference compound] | increased cell-bound BCMA levels
